One compound from paper PMC12516379, “Rotamer-Controlled Self-Immolative Linkers Enable Tunable Release of Neurosteroid Oxime Prodrugs” (ACS Medicinal Chemistry Letters, 2025) can be followed below.

Molecules are shown by their SMILES.

Series [1] can be described thus: Stability in acetate buffer pH 5.0 at room temperature via HPLC (UV). The class given is physicochemical. The essentials: (§1)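 Progesterone prodrugs dissolved at 1 mg/mL in PBS (pH 7.03) or 10 mM acetate buffer (pH 5.0), kept at RT and reinjected over time, HPLC-UV AUC at 254 nm. Percent parent remaining; k from ln(%remaining) vs time, pseudo-first-order t1/2 = 0.693/k; duplicates averaged.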

The nature of series [2]: Plasma stability assay at 37 °C via LC-MS/MS, human plasma.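 On all read-outs here: prodrugs at 3 µM incubated in human plasma at 37 °C, intact prodrug quantified by LC-MS/MS over time, values are means of duplicate runs.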 It is filed as in vitro ADME. Conditions: for half-life at 3 µM: human, plasma.
Series [3] in a line: Plasma stability assay via LC-MS/MS, rat plasma. It is filed as in vitro ADME. Conditions: read-out: t1/2 in rat plasma (Table S19) (converted). The protocol: (§2) Building on our observation that rotamer control in the steric series can be modulated by enzymatic stabilization or activation, we next evaluated whether this effect was species dependent. To investigate this, we performed comparative stability studies by incubating select prodrugs (20a, 20b, 20l and 20t; Figure ) in mouse and rat plasma – two of the most commonly used preclinical species in drug development. This approach allowed us to assess the potential influence of species-specific enzymes on rotamer equilibria and, by extension, prodrug activation rates. The self-immolation profiles for the sterically tuned linker series (20a–b) reveal discernible, species-dependent differences prodrug stability. […] While the precise biochemical drivers remain unclear, this observation warrants further investigation beyond the scope of this work.
(§3) 1.2 Stability in Plasma and PBS via LCMS
(§4) Procaine (positive control) was purchased from Sigma-Aldrich. HPLC grade MeCN, MeOH, H2O, and FA were purchased from Fischer Scientific. Human plasma (cat. No. […]- […]
(§5) 0102242) were obtained from BIOIVT. DPBS 1X (no calcium, no magnesium, pH = 7.03) was purchased from Thermo Fischer Scientific. Stock solutions were prepared in 100% DMSO, and suitable dilutions of target analytes were prepared in 0.1% FA /MeCN for method development.
(§6) For PBS assay Gibco® Dulbecco’s phosphate-buffered saline (DPBS 1X, no calcium, no magnesium, pH = 7.03) was utilized. All experiments were performed in duplicate and results are presented as the average of two experimental replicates.
(§7) Procedure for Plasma Stability Assay
(§8) Test compounds and positive control (i.e. procaine) were dissolved in DMSO to make a 10 mM stock solution and subsequently diluted to 500 μM in 50% MeCN and PBS. This intermediate stock solution was prepared and added immediately prior to the start of each test compound experiment. Plasma was thawed at ambient temperature and aliquoted (663.0 μL) into 1.5 mL Eppendorf tubes. Plasma was incubated at 37 °C for 10 minutes in an incubator shaker at 150 rpm, and the reactions were initiated by addition of the test compound or positive control (4.0 µL, 3 μM). The spiked plasma samples were incubated at 37 °C. For designated time points, 75 µL aliquots were removed from the incubation mixture and immediately quenched in 150 µL of MeCN/0.1%FA with internal standard (ISTD, 2 µM d 5-7-ethoxy coumarin). […] The supernatant was transferred to an LC-MS vial and analyzed by LC/MS-MS. […]
(§9) LC–MS/MS analysis was performed using an Agilent 1260 Infinity II HPLC, coupled with an Agilent G6460 triple quadrupole mass spectrometer (Agilent Technologies, USA). All the data were acquired employing Agilent 6460 Quantitative Analysis data processing software. […]

Series [4] can be described thus: Stability in PBS at room temperature via HPLC (UV). The note with it: phosphate-buffered saline (DPBS). It is filed as physicochemical. Put shortly: as §1
Series [5] is described as follows: Plasma stability assay via LC-MS/MS, mouse plasma. It is filed as in vitro ADME. The note with it: read-out: t1/2 in mouse plasma (Table S20) (converted). The protocol:
as §2, §3, §4, §5, §6, §7, §8, §9

Series [6] is described as follows: Aqueous solubility by visual inspection in acetate buffer (pH 5). The note with it: sodium acetate buffer, pH 5, aqueous buffer, thermodynamic from solid.
Description: For the solubility assessment, acetate buffer (pH 5) was selected as the media of choice to ensure prodrug stability during analysis.
High aqueous solubility was determined by visual inspection of 5 mg solid material in 0.5 mL
sodium acetate buffer solution. This media was selected to ensure stability of prodrugs during
dissolution in 50 mg/mL aqueous media.

Usually solubility stands for the concentration that dissolves in the medium under given conditions. A higher solubility goes with a readily soluble substance. With `CNCCN(C)C(=O)O/N=C(\C)[C@H]1CC[C@H]2[C@@H]3CCC4=CC(=O)CC[C@]4(C)[C@H]3CC[C@]12C` [20a], the half-life at 1 mg/mL in series [1] (pH 5, acetate buffer pH 5.0, RT, 1 mg/mL, HPLC 254 nm, read-out: t1/2 in acetate buffer at RT (Tables S5-S8) (converted)) was > 168 h; in series [1] (pH 5, acetate buffer pH 5.0, rt, HPLC (UV), read-out: Half-life (t½) pH 5.0 rt (converted)), > 168 h; in series [1] (pH 5, acetate buffer pH 5.0, rt, read-out: t½: pH 5.0, rt (Table S23) (converted)), > 168 h; in series [4] (pH 7.03, DPBS pH 7.03, RT, 1 mg/mL, HPLC 254 nm, read-out: t1/2 in PBS buffer at RT (Tables S1-S4) (converted)), 46.9 ± 0.77 h; in series [4] (pH 7.03, PBS, rt, HPLC (UV), read-out: Half-life (t½) PBS rt (converted)), 46.9 h; in series [4] (pH 7.03, PBS, rt, read-out: t½: PBS, rt (Table S23) (converted)), 46.9 h. In addition, the “t1/2 in human plasma at 37 °C (Tables S10-S13, S18)” value in series [2] (3 µM, LC-MS/MS) was 2.45 h. Moreover, the “Plasma, 37 °C %rem. at 2h (Table S23)” value in series [2] (2 h) worked out at 73%. The half-life at 3 µM in series [2] (3 µM, LC-MS/MS, read-out: t1/2 in human plasma at 37 °C (Tables S10-S13, S18) (converted)) was 3.14 h; in series [2] (LC-MS/MS, read-out: Half-life (t½) Plasma 37°C (converted)), 2.49 h; in series [2] (read-out: Plasma, 37 °C t½ (Table S23) (converted)), 2.45 h; in series [3] it was 3.88 h; in series [5], 4.7 h. Further, the solubility in series [6] was > 10000 µg/mL.
